Reference: patent publication US20090264384A1, “INDOLE, BENZIMIDAZOLE, AND BENZOLACTAM BORONIC ACID COMPOUNDS, ANALOGS THEREOF AND METHODS OF USE THEREOF” (Nuada, Inc., priority 2004, published 2009)

Assays:
Estrogen(h) (ER) = target: T1, Estrogen(h) (ER) (Homo sapiens, UniProt P03372); experiment: Estrogen(h) (ER) binding assay; conditions: 1.0E−05 M
T1 construct: Estrogen(h); MCF-7 cells; 17-β-estradiol; Sheen et al. (1985); endogenous in cells; host or cells: MCF-7 cells (cytosol)

CCKA(h) (CCK1) = target: T2, CCKA(h) (CCK1) (Homo sapiens, UniProt P32238); experiment: CCKA(h) (CCK1) binding assay; conditions: read-out: % Inhibition of Control Specific Binding
T2 construct: expressed in transfected cells; host or cells: CHO cells

α1 (non-selective) = α1 (non-selective) binding assay; parameters: species or system rat; conditions: 1.0E−05 M
[1] = system: Ca^2+ channel (L, verapamil site) (phenylalkylamines); experiment: Ca^2+ channel (L, verapamil site) binding assay; parameters: species or system rat; conditions: 1.0E−05 M
B2(h) = target: T3, B2(h) (Homo sapiens, UniProt P30411); experiment: B2(h) binding assay; conditions: 1.0E−05 M; read-out: % Inhibition of Control Specific Binding
T3 construct: expressed in transfected cells; host or cells: CHO cells

β1(h) = target: T4, β1(h) (Homo sapiens, UniProt P08588); experiment: β1(h) binding assay; conditions: read-out: % Inhibition of Control Specific Binding
T4 construct: expressed in transfected cells; host or cells: HEK-293 cells

MC4(h) = target: T5, MC4(h) (Homo sapiens, UniProt P32245); experiment: MC4(h) binding assay; conditions: 1.0E−05 M; read-out: % Inhibition of Control Specific Binding
T5 construct: expressed in transfected cells; host or cells: HEK-293 cells

CYP2D6 = CYP2D6 (Homo sapiens, UniProt P10635); experiment: ADME-Tox: In vitro Metabolism (Cytochrome P450, fluorogenic substrates BFC, CEC, MFC); parameters: inhibition: dose or concentration left out as unconfirmed; conditions: human
CYP2C9 = CYP2C9 (Homo sapiens, UniProt P11712); experiment: as above; parameters: inhibition: dose or concentration left out as unconfirmed; conditions: human
CYP2C19 = CYP2C19 (Homo sapiens, UniProt P33261); experiment: as above; parameters: inhibition: dose or concentration left out as unconfirmed; conditions: human
[2] = system: chronic colitis provoked by trinitrobenzene sulphonic acid (TNBS); experiment: Rat model of chronic colitis provoked by TNBS over 14 days, treatment from Day 1; type: in vivo
Excerpt: In the chronic model of colitis, assessment of the colonic inflammation is made 14 days or longer, after the intracolonic challenge with TNBS (Boughton-Smith et al, 1988a, 1988b; Wallace et al, 1989; Rachmilewitz et al, 1989; Wallace and Keenan, 1990; Ameho et al, 1987; Sans et al, 1999; Sun et al, 2001; Maric et al, 2003; Moreels et al, 2004; Gonzalez et al, 2004). This model allows treatment with experimental agents to commence following the establishment of the colonic injury, typically 24 hours after the TNBS challenge (Galvez et al, 2000, Villegas, 2003, Gonzalez et al, 2004). The model should therefore identify the ability of the experimental compounds to accelerate the diminution of the inflammatory response and to promote healing of the colonic lesions. This model thus has relevance additional to the acute model, as the clinical correlate is the therapeutic intervention in patients with existing IBD not in remission or with flare-up, to reduce the crisis. This contrasts with the acute TNBS model where the compounds are administered one or two days prior to challenge, the clinical correlate being the use of prophylactic therapy to prevent flare-up and maintain remission in IBD patients.
In this current study, the low intracolonic challenge concentration of TNBS used in the acute studies was also used for the chronic study over a 14 day period. This concentration and timing was based on the findings from pilot studies where a range of concentrations of TNBS and treatment conditions were evaluated over a 14 day period. […].
The methods and protocol used were substantially similar to those in Example 39-40, with some differences described below.
TNBS Challenge. Male Wistar rats (average body weight, 210 g) were randomised into groups before commencement of the study. In all groups, including the non-challenged and non-treated absolute control group, food was withdrawn for 12 h before TNBS administration (i.e. overnight on Day −1), but the rats were allowed free access to drinking water.
On the morning of the day of challenge (Day 0, between 9.00 and 1 1.00 a.m.), the rats were transiently anaesthetised with ether and the TNBS solution (10 mg in 0.25 ml of 50% ethanol) was instilled approximately 6-8 cm into the colon using a soft plastic catheter inserted in the rat rectum. The rats were allowed to recover with free access to food and drinking water. At the end of the experiment, on the morning of Day 14, between 9.00 and 11.00), the colon was dissected, and the distal 8 cm photographed and immediately processed or stored appropriately for subsequent analyses.
The following primary parameters were measured in the study: macroscopic scoring of distal 8 cm of colon; myeloperoxidase levels in segments of distal 8 cm of colon; TNF-α levels in segments of distal 8 cm of colon.
In addition, the weight of the standard colonic segment was assessed as an indirect and non-specific marker of oedema. The body weight of the animals was also determined each evening of the study, starting on Day-1, and also on the morning of Day 14. The data is shown graphically as the % change from the weight on Day-1, prior to challenge.
Treatments. The TNBS challenged groups for study were: (a) Vehicle control 0.5% carboxy methyl cellulose (CMC) p.o., twice daily from Day; (b) CCI-7506 25 mg/kg, p.o., twice daily from Day 1 (50 mg/kg/day total); (c) CCI-7506 50 mg/kg, p.o., twice daily from Day 1 (100 mg/kg/day total); (d) CCI-7507 12.5 mg/kg, p.o., twice daily from Day 1 (25 mg/kg/day total); (e) CCI-7507 25 mg/kg, p.o., twice daily from Day 1(50 mg/kg/day total); […]; (g) Infliximab 3 mg/kg, single slow i.v. injection, on Day 1 and Day7.
The experimental compounds that were administered orally were given twice a day from Day 1, i.e. 24 h following TNBS administration, for the remainder of the 14 day experimental period. Infliximab was administered by slow i.v. injection of Day 1 and on Day 7. […]

[3] = 50 mg/kg/day p.o. from Day 1, Day 14, vs CMC group

T2 sequence (P32238 whole entry): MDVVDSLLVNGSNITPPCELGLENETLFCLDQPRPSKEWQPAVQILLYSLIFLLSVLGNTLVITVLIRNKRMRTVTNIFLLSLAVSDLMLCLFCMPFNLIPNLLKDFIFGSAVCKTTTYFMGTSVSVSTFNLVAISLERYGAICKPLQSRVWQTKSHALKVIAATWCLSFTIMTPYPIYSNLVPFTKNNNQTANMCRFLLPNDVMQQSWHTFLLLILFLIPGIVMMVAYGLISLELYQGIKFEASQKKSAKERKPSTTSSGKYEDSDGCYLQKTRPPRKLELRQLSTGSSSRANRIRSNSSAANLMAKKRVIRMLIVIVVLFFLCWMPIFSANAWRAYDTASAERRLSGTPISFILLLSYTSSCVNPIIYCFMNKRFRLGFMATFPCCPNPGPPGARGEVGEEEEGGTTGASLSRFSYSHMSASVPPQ
Sequence of CYP2C19 (P33261 whole entry): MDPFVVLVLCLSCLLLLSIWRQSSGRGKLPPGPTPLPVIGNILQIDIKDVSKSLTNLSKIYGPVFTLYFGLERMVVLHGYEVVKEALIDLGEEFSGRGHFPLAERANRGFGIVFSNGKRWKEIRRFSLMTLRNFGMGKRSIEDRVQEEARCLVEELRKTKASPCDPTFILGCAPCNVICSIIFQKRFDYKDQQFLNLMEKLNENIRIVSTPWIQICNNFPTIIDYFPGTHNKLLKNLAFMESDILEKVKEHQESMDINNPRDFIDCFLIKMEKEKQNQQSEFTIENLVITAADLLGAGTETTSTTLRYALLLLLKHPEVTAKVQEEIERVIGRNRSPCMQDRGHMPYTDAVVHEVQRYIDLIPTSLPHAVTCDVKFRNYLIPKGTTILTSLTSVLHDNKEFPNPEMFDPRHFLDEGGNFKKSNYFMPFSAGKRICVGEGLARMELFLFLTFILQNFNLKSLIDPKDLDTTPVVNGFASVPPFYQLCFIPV
T3 sequence (P30411 whole entry): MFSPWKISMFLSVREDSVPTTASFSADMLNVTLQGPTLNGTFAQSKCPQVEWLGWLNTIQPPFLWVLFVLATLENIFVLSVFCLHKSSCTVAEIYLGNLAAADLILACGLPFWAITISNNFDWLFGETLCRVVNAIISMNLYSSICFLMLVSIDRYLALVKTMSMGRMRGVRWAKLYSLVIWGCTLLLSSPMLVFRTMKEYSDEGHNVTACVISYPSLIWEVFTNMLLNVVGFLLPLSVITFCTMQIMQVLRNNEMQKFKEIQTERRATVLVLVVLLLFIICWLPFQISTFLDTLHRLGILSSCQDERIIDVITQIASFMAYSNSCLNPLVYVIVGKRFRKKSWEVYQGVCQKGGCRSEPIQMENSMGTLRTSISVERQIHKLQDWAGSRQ
Sequence of CYP2C9 (P11712 whole entry): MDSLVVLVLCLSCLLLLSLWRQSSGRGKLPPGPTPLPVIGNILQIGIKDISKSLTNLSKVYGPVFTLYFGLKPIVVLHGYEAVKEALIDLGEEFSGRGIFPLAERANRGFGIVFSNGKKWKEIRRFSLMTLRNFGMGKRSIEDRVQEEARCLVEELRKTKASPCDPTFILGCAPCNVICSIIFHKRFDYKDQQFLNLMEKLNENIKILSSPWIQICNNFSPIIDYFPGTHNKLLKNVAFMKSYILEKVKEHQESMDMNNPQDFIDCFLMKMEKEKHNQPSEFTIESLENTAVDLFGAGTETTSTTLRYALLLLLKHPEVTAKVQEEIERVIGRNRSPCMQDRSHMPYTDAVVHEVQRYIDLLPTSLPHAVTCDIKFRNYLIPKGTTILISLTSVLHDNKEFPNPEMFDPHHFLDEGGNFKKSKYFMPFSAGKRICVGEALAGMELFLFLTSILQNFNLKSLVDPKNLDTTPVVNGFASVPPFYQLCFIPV
Sequence of CYP2D6 (P10635 whole entry): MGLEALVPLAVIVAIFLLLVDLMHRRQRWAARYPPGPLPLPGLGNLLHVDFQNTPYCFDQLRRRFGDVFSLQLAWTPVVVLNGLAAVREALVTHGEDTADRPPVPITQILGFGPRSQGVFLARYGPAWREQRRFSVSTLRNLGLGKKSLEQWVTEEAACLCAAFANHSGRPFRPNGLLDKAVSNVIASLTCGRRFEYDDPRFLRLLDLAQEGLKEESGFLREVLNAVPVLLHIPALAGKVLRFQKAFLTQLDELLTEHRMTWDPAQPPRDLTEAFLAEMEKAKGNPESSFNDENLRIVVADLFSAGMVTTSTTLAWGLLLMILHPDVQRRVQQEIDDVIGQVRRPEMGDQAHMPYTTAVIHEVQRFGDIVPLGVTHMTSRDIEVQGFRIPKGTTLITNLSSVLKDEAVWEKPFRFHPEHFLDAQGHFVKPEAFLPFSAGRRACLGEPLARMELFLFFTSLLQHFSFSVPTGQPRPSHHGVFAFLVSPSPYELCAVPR
T1 sequence (P03372 whole entry): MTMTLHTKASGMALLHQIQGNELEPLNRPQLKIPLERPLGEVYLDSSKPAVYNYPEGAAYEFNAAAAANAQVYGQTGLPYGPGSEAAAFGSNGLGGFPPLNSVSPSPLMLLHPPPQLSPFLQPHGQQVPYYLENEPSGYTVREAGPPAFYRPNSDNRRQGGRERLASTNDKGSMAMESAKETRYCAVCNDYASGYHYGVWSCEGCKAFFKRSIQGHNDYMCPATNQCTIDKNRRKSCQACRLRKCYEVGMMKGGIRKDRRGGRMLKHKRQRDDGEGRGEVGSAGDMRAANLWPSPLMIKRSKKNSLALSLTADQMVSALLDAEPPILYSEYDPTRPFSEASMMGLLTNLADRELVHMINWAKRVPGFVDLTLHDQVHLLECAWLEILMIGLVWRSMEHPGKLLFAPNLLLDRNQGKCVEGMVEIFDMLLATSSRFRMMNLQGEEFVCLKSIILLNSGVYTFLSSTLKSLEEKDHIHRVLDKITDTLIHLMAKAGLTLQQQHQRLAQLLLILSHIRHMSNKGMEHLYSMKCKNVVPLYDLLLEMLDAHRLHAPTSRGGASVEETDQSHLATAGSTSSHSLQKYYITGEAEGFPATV
T4 sequence (P08588 whole entry): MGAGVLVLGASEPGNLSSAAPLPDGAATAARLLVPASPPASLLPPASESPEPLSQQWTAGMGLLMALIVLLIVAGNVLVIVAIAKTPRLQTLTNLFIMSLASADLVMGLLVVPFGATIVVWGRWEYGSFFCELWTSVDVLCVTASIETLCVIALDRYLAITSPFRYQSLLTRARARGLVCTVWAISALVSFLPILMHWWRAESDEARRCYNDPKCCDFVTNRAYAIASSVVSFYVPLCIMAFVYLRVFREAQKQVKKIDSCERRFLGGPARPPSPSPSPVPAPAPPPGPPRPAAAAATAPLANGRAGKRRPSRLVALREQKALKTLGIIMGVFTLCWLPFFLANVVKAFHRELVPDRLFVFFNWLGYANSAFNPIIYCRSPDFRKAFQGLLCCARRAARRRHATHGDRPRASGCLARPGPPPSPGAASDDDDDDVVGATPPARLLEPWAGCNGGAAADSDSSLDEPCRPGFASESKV
T5 sequence (P32245 whole entry): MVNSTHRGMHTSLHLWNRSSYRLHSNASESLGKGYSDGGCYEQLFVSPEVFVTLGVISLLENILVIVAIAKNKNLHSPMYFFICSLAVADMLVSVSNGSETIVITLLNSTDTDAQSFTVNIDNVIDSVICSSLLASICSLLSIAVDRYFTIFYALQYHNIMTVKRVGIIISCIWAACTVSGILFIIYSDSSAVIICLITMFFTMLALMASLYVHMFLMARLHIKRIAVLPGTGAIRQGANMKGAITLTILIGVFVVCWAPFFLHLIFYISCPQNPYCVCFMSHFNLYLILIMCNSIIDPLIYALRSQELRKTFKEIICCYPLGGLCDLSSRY

Compound | % Inhibition of Control Specific Binding (Estrogen(h) (ER)) [%] | inhibition at 10 µM (CCKA(h) (CCK1)) [%] | % Inhibition of Control Specific Binding (α1 (non-selective)) [%] | % Inhibition of Control Specific Binding [1] [%] | inhibition at 10 µM (B2(h)) [%] | inhibition at 10 µM (β1(h)) [%] | inhibition at 10 µM (MC4(h)) [%] | inhibition (CYP2D6) [%] | inhibition (CYP2C9) [%] | inhibition (CYP2C19) [%] | macroscopic Damage Score ([2]; 50 mg/kg/day p.o. from Day 1, Day 14) | reduction in colon weight [2, 3] | reduction in colonic MPO activity [2, 3] | reduction in colonic TNF-α levels [2, 3] | reduction in colonic lesion area (% of the total area measured) [2, 3] | attenuation of TNBS-induced fall in body weight (% change of body weight at Day −1) ([2]; 50 mg/kg/day p.o. in divided doses from Day 1, over 14 days, vs CMC group)
N#Cc1ccc2c(ccn2CCCCCB(O)O)c1 [Example 20, 5-(5-cyano-1H-indol-1-yl)pentylboronic acid] | 3 | 7 | 21 | −12 | 18 | 7 | 2 | 42 | 73 | 52 | – | – | – | – | – | –
O=C(O)c1cc(/N=N/c2ccc(S(=O)(=O)Nc3ccccn3)cc2)ccc1O [sulfasalazine, reference compound] | – | – | – | – | – | – | – | – | – | – | reduced the damage score | significant (P<0.05) reduction in colon weight | significantly (P<0.001) reduced the elevated colonic levels of MPO | significantly reduced the elevated colonic levels of TNF-α | significantly (P<0.001) reduced the extent of macroscopic injury | reached statistical significance compared with the CMC challenged group on at Day 2, 3, 6 and 7
